Assay results from US12115157B2, “3-phenoxyazetidin-1-yl-heteroaryl pyrrolidine derivatives and the use thereof as medicament” (Boehringer Ingelheim International GmbH, priority 2021, dated 2024).

Experiments:
[1] = system: human plasma proteins; experiment: Human plasma protein binding assay (equilibrium dialysis); type: in vitro ADME; settings: 1 μM, 2 hours, 37° C.
Protocol: Equilibrium dialysis (ED) technique was used to determine the approximate in vitro fractional binding of test compounds to plasma proteins. Dianorm Teflon dialysis cells (micro 0.2) were used. Each dialysis cell consists of a donor and an acceptor chamber, separated by an ultrathin semipermeable membrane with a 5 kDa molecular weight cut-off. Stock solutions for each test compound were prepared in DMSO at 1 mM and serially diluted to obtain a final test concentration of 1 μM. The subsequent dialysis solutions were prepared in plasma (supplemented with NaEDTA as anticoagulant), and aliquots of 200 μL test compound dialysis solution in plasma were dispensed into the donor (plasma) chambers. Aliquots of 200 μL dialysis buffer (100 mM potassium phosphate, pH 7.4) were dispensed into the buffer (acceptor) chamber. Incubation was carried out for 2 hours under rotation at 37° C. for establishing equilibrium.
At the end of the dialysis period, aliquots obtained from donor and acceptor chambers, respectively, were transferred into reaction tubes, spiked with Internal Standard solution and processed for HPLC-MS/MS analysis. Analyte concentrations were quantified in aliquots of samples by HPLC-MS/MS against external calibration curves.
Percent bound was calculated using the formula: % bound=(plasma concentration−buffer concentration/plasma concentration)×100

[2] = system: primary human hepatocytes; experiment: In vitro metabolite profiling in primary human hepatocytes with or without proadifen; type: in vitro ADME; settings: for % Parent of drug-related material: incubations in primary human hepatocytes, 1 μM test compound; for Contribution of amide hydrolysis to metabolism (incl. secondary metabolites): abundance of deacetylated metabolites relative to all metabolites
Protocol: In vitro metabolite profiling to evaluate the involvement of non-CYP-enzyme-mediated metabolic pathways such as hydrolysis in addition to CYP-mediated pathways is based on the semiquantitative analysis of the formation of prototypic metabolites in incubations with liver microsomes (with and without beta-nicotinamide adenine dinucleotide phosphate, NADPH), primary human hepatocytes (with and without the pan-CYP inhibitor proadifen) and recombinant CYP enzymes.
An additional measure to identify CYP-independent metabolic pathways is the use of the pan-CYP inhibitor proadifen in incubations of the test compound with human hepatocytes. In presence of proadifen, the CYP-related pathways are inhibited and metabolites would primarily be generated via non-CYP pathways.
The involvement of non-CYP-enzymes in metabolic transformations of the test compound was further investigated using primary human hepatocytes in suspension in presence or absence of the pan-CYP inhibitor proadifen (50 μM final incubation concentration). After recovery from cryopreservation, human hepatocytes were incubated in Dulbecco's modified eagle medium supplemented with 3.5 μg glucagon/500 ml, 2.5 mg insulin/500 ml and 3.75 mg/500 ml hydrocortisone containing 5% (v/v) human serum.
Following a 30 min preincubation in a cell culture incubator (37° C., 10% CO2) with or without 50 μM proadifen, test compound solution was spiked into the hepatocyte suspension to obtain a final cell density of 1.0*10^6 to 4.0*10^6 cells/ml (depending on the metabolic turnover rate of the compound observed with primary human hepatocytes), a final test compound concentration of 1 μM, and a final DMSO concentration of 0.05% (v/v).
The cells were incubated for six hours (incubator, horizontal shaker) and samples were removed from the incubation after 0, 0.5, 1, 2, 4 or 6 hours, depending on the metabolic turnover rate. Samples were quenched with acetonitrile and pelleted by centrifugation. The supernatant was transferred to a 96-deepwell plate, evaporated under nitrogen, and resuspended prior to bioanalysis by liquid chromatography-high resolution mass spectrometry for identification of putative metabolites.
The contribution of hydrolysis was calculated based on the abundance of the respective deacetylated metabolite(s) of the compounds of the present invention relative to all metabolites observed in incubations with human hepatocytes.

[3] = target: hERG channel (Homo sapiens (Human), UniProt Q12809); experiment: hERG channel assay (whole-cell patch clamp); type: cell-based; settings: HEK293 cells stably transfected with hERG cDNA
Sequence of hERG channel (Q12809 whole entry): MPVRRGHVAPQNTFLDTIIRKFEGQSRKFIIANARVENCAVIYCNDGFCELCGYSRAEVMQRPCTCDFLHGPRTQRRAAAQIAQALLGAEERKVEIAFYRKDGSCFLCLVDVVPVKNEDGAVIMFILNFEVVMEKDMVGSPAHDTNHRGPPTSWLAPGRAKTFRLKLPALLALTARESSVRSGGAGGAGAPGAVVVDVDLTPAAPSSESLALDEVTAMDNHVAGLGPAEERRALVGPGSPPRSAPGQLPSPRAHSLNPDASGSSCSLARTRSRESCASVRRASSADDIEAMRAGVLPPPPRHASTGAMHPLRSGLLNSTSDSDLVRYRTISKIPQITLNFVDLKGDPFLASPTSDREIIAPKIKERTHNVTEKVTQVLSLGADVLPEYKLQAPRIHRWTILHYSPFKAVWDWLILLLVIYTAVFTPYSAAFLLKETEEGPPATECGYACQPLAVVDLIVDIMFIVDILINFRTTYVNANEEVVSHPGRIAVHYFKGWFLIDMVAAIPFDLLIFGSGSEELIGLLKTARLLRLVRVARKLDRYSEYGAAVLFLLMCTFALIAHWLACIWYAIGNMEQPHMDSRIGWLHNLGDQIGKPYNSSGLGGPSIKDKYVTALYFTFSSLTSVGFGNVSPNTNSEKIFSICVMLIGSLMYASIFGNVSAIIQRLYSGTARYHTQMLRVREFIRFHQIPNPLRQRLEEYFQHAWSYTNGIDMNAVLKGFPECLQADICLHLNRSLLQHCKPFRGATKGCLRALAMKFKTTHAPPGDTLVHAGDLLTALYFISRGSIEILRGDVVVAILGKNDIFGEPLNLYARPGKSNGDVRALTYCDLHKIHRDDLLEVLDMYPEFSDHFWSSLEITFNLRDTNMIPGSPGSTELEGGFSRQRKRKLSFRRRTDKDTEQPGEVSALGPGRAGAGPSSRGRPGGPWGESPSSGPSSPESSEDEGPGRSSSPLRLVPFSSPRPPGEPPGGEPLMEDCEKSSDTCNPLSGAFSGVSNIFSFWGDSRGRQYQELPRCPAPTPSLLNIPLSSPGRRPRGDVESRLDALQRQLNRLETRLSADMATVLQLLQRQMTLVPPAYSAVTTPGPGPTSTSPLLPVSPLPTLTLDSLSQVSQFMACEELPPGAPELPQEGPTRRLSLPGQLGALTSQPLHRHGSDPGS
Source text: hERG Channel inhibition of compounds of the present invention was investigated as follows:
HEK (human embryonic kidney) 293 cells were stably transfected with hERG cDNA. Cells determined for use in patch clamp experiments were cultivated without antibiotic.
Cells were superfused with a bath solution containing (mM): NaCl (137), KCl (4.0), MgCl2 (1.0), CaCl2(1.8), Glucose (10), HEPES (10), pH 7.4 with NaOH. Patch pipettes were made from borosilicate glass tubing using a pipette and filled with pipette solution containing (mM): K-aspartate (130), MgCl2(5.0), EGTA (5.0), K2ATP (4.0), HEPES (10.0), pH 7.2 with KOH. Resistance of the microelectrodes was typically in the range between 2 MΩ and 5 MΩ.
Membrane currents were recorded using an EPC-10 patch clamp amplifier (HEKA Electronics, Lambrecht, FRG) and PatchMaster software (HEKA). hERG-mediated membrane currents were recorded at typically 28° C., using the whole-cell configuration of the patch-clamp technique. Transfected HEK293 cells were clamped at a holding potential of −60 mV and hERG-mediated inactivating tail currents were elicited using a pulse pattern with fixed amplitudes (activation/inactivation: 40 mV for 2000 ms; recovery: 120 mV for 2 ms; ramp to 40 mV in 2 ms; inactivating tail current: 40 mV for 50 ms) repeated at 15 s intervals. During each inter-pulse interval 4 pulses scaled down by a factor of 0.2 were recorded for a P/n leak subtraction procedure. Rs compensation was employed up to a level that safely allows recording devoid of ringing. The remaining uncompensated Rs was recorded as well as actual temperature and holding current.
The concentrations of the test item were applied sequentially on each of the different cells investigated. A steady state level of baseline current was measured for at least 5 sweeps prior to the application of the first test article concentration. The test item was dissolved in DMSO to yield a stock solution of 1000-fold the highest final concentration. This stock was diluted further in DMSO to stock solutions of 1000-fold the remaining final concentrations. Final dilutions in extracellular buffer were prepared freshly from these stocks by a 1:1000 dilution step each before starting the experiments.
Peak current amplitudes were measured 3 ms after the ramp to +40 mV. For baseline and each concentration, the peak currents of the three last sweeps before application of the next concentration were averaged. Residual currents (I/I0) were calculated for each cell as the fraction of actual average peak current and average baseline peak current. Current inhibition was expressed as […]. Current inhibition for all cells was reported as mean ±SD. If possible, from mean current inhibition data the IC50 was estimated based on the Hill equation using a least squares procedure.

| Structure (SMILES) | Hu PPB [1] [% bound] | % Parent of drug-related material [2] [%] | Contribution of amide hydrolysis to metabolism (incl. secondary metabolites) ([2]; primary human hepatocytes) [%] | IC50 [3] [µM] | % Inhibition by 50 μM proadifen ([2]; formation of secondary metabolite m443 (of m429), primary human hepatocytes) |
| --- | --- | --- | --- | --- | --- |
| CC(=O)N1C[C@H](NC(=O)c2nccnc2N2CC(Oc3cc(F)cc(F)c3)C2)C(F)(F)C1 [Example 10a] | 82.4 | 86 | 51 | > 10 |  |
| CC(=O)N1C[C@H](NC(=O)c2nccnc2N2CC(Oc3cc(F)c(F)c(F)c3)C2)C(F)(F)C1 [Example 11b] | 84.4 | 82 | 49 | > 10 | 82^6 % untreated control |
| CC(=O)N1CC[C@@H](NC(=O)c2nsnc2N2CC(Oc3cc(F)cc(F)c3)C2)C1 [Example 15a] | 90.2 | 92 | 6 | > 10 |  |
